Laboratory results as given in patent publication US9315467B2, “Compounds for nonsense suppression, and methods for their use” (priority 2004, dated 2016).

melting point [°C] | SMILES
271 to 273 | O=C(O)c1cccc(-c2nccc(-c3ccc(C(F)(F)F)cc3)n2)c1 [Compound 78, 3-[4-(4-Trifluoromethyl-phenyl)-pyrimidin-2-yl]-benzoic acid]
299 to 302 | O=C(O)c1ccc(-c2ccnc(-c3ccc(OC(F)(F)F)cc3)n2)cc1 [Compound 27, 4-[2-(4-Trifluoromethoxy-phenyl)-pyrimidin-4-yl]-benzoic acid]
288 to 290 | Cc1ccc(-c2ncnc(-c3ccc(C(=O)O)cc3)n2)cc1 [Compound 46, 4-(4-p-Tolyl-[1,3,5]triazin-2-yl)-benzoic acid]
> 310 | Cc1ccc(-c2nccc(-c3ccc(C(=O)O)cc3)n2)cc1 [Compound 10, 4-(2-p-Tolyl-pyrimidin-4-yl)-benzoic acid]
273 to 276 | O=C(O)c1cccc(-c2ncnc(-c3cccc(F)c3)n2)c1 [Compound 49, 3-[4-(3-Fluoro-phenyl)-[1,3,5]triazin-2-yl]-benzoic acid]
251 to 252 | O=C(O)c1ccc(-c2ccnc(-c3ccccc3C(F)(F)F)n2)cc1 [Compound 31, 4-[2-(2-Trifluoromethyl-phenyl)-pyrimidin-4-yl]-benzoic acid]
270 to 273 | COc1cccc(-c2nccc(-c3ccc(C(=O)O)cc3)n2)c1 [Compound 16, 4-[2-(3-Methoxy-phenyl)-pyrimidin-4-yl]-benzoic acid]
243 to 244 | COc1ccc(-c2ccnc(-c3cccc(C(=O)O)c3)n2)cc1 [Compound 71, 3-[4-(4-Methoxy-phenyl)-pyrimidin-2-yl]-benzoic acid]
220 to 222 | Cc1cccc(-c2ccnc(-c3ccc(C(=O)O)cc3)n2)c1 [Compound 64, 4-(4-m-Tolyl-pyrimidin-2-yl)-benzoic acid]
234 to 236 | O=C(O)c1ccc(-c2nccc(-c3ccccc3F)n2)cc1 [Compound 65, 4-[4-(2-Fluoro-phenyl)-pyrimidin-2-yl]-benzoic acid]
240 to 243 | COc1ccc(-c2ccnc(-c3cccc(C(=O)O)c3)n2)cc1OC [Compound 58, 3-[4-(3,4-Dimethoxy-phenyl)-pyrimidin-2-yl]-benzoic acid]
295 to 298 | O=C(O)c1ccc(-c2ncnc(-c3ccc(F)cc3)n2)cc1 [Compound 47, 4-[4-(4-Fluoro-phenyl)-[1,3,5]triazin-2-yl]-benzoic acid]
296 to 299 | O=C(O)c1cccc(-c2nccc(-c3ccc(-c4ccccc4)cc3)n2)c1 [Compound 75, 3-(4-Biphenyl-4-yl-pyrimidin-2-yl)-benzoic acid]
249 to 252 | O=C(O)c1ccc(-c2nccc(-c3cccc(F)c3)n2)cc1 [Compound 38, 4-[4-(3-Fluoro-phenyl)-pyrimidin-2-yl]-benzoic acid]
> 305 | O=C(O)c1ccc(-c2nccc(-c3ccc(-n4ccnc4)cc3)n2)cc1 [Compound 41, 4-[4-(4-Imidazol-1-yl-phenyl)-pyrimidin-2-yl]-benzoic acid]
281 to 283 | CN(C)c1ccc(-c2ccnc(-c3cccc(C(=O)O)c3)n2)cc1 [Compound 60, 3-[4-(4-Dimethylamino-phenyl)-pyrimidin-2-yl]-benzoic acid]
> 300 | O=C(O)c1ccc(-c2ccnc(-c3ccc(Cl)cc3)n2)cc1 [Compound 22, 4-[2-(4-Chloro-phenyl)-pyrimidin-4-yl]-benzoic acid]
272 to 274 | O=C(O)c1ccc(-c2nccc(-c3ccc4c(c3)OCCO4)n2)cc1 [Compound 40, 4-[4-(2,3-Dihydro-benzo[1,4]dioxin-6-yl)-pyrimidin-2-yl]-benzoic acid]
258 to 261 | O=C(O)c1ccc(-c2ccnc(-c3ccccc3OC(F)(F)F)n2)cc1 [Compound 61, 4-[2-(2-Trifluoromethoxy-phenyl)-pyrimidin-4-yl]-benzoic acid]
239 to 241 | O=C(O)c1cccc(-c2nccc(-c3ccc4c(c3)OCCO4)n2)c1 [Compound 42, 3-[4-(2,3-Dihydro-benzo[1,4]dioxin-6-yl)-pyrimidin-2-yl]-benzoic acid]
243 to 245 | CC(C)c1ccc(-c2ccnc(-c3ccc(C(=O)O)cc3)n2)cc1 [Compound 36, 4-[4-(4-Isopropyl-phenyl)-pyrimidin-2-yl]-benzoic acid]
282 to 285 | O=C(O)c1ccc(-c2nccc(-c3ccc(C(F)(F)F)cc3)n2)cc1 [Compound 66, 4-[4-(4-Trifluoromethyl-phenyl)-pyrimidin-2-yl]-benzoic acid]
266 to 269 | O=C(O)c1cccc(-c2ncnc(-c3ccc(F)cc3)n2)c1 [Compound 44, 3-[4-(4-Fluoro-phenyl)-[1,3,5]triazin-2-yl]-benzoic acid]
252 to 253 | Cc1ccc(-c2ccnc(-c3cccc(C(=O)O)c3)n2)cc1 [Compound 73, 3-(4-p-Tolyl-pyrimidin-2-yl)-benzoic acid]
289 to 291 | O=C(O)c1ccc(-c2nccc(-c3ccc(N4CCOCC4)cc3)n2)cc1 [Compound 67, 4-[4-(4-Morpholin-4-yl-phenyl)-pyrimidin-2-yl]-benzoic acid]

melting point [°C] | SMILES
283 to 284 | Cc1ccc(-c2cccc(-c3ccc(C(=O)O)cc3)n2)cc1 [Compound 14, 4-(6-p-Tolyl-pyridin-2-yl)-benzoic acid]
307 to 309 | COc1ccc(-c2ncnc(-c3cccc(C(=O)O)c3)n2)cc1 [Compound 48, 3-[4-(4-Methoxy-phenyl)-[1,3,5]triazin-2-yl]-benzoic acid]
260 to 262 | Cc1ccc(-c2cncc(-c3ccc(C(=O)O)cc3)c2)cc1 [Compound 15, 4-(5-p-Tolyl-pyridin-3-yl)-benzoic acid]
287 to 289 | Cc1ccc(-c2ccnc(-c3ccc(C(=O)O)cc3)n2)cc1 [Compound 35, 4-(4-p-Tolyl-pyrimidin-2-yl)-benzoic acid]
292 to 295 | CN(C)c1ccc(-c2ccnc(-c3ccc(C(=O)O)cc3)n2)cc1 [Compound 59, 4-[4-(4-Dimethylamino-phenyl)-pyrimidin-2-yl]-benzoic acid]
253 to 255 | O=C(O)c1cccc(-c2nccc(-c3cccc(F)c3)n2)c1 [Compound 74, 3-[4-(3-Fluoro-phenyl)-pyrimidin-2-yl]-benzoic acid]
> 300 | O=C(O)c1ccc(-c2ccnc(-c3ccccc3F)n2)cc1 [Compound 23, 4-[2-(2-Fluoro-phenyl)-pyrimidin-4-yl]-benzoic acid]
269 to 272 | CCOc1ccc(-c2ncnc(-c3cccc(C(=O)O)c3)n2)cc1 [Compound 45, 3-[4-(4-Ethoxy-phenyl)-[1,3,5]triazin-2-yl]-benzoic acid]
293 to 296 | O=C(O)c1ccc(-c2nccc(-c3ccc(-c4ccccc4)cc3)n2)cc1 [Compound 39, 4-(4-Biphenyl-4-yl-pyrimidin-2-yl)-benzoic acid]
286 to 289 | Cc1ccc(-c2cc(-c3ccc(C(=O)O)cc3)ccn2)cc1 [Compound 12, 4-(2-p-Tolyl-pyridin-4-yl)-benzoic acid]
288 to 291 | Cc1ccc(-c2ccnc(-c3ccc(C(=O)O)cc3)c2)cc1 [Compound 13, 4-(4-p-Tolyl-pyridin-2-yl)-benzoic acid]
167 to 169 | CC(C)c1ccc(-c2nccc(-c3cccc(C(N)=O)c3)n2)cc1 [Compound 4, 3-[2-(4-Isopropyl-phenyl)-pyrimidin-4-yl]-benzamide]
> 300 | COc1ccc(-c2ncnc(-c3ccc(C(=O)O)cc3)n2)cc1 [Compound 53, 4-[4-(4-Methoxy-phenyl)-[1,3,5]triazin-2-yl]-benzoic acid]
241 to 243 | O=C(O)c1cccc(-c2nccc(-c3ccc(OC(F)(F)F)cc3)n2)c1 [Compound 69, 3-[4-(4-Trifluoromethoxy-phenyl)-pyrimidin-2-yl]-benzoic acid]
271 to 273 | O=C(O)c1cccc(-c2nccc(-c3cccc(C(F)(F)F)c3)n2)c1 [Compound 77, 3-[4-(3-Trifluoromethyl-phenyl)-pyrimidin-2-yl]-benzoic acid]
> 300 | O=C(O)c1ccc(-c2ccnc(-c3ccc(C(F)(F)F)cc3)n2)cc1 [Compound 21, 4-[2-(4-Trifluoromethyl-phenyl)-pyrimidin-4-yl]-benzoic acid]
> 300 | O=C(O)c1ccc(-c2ccnc(-c3ccccc3)n2)cc1 [Compound 28, 4-(2-Phenyl-pyrimidin-4-yl)-benzoic acid]
> 300 | O=C(O)c1ccc(-c2ccnc(-c3cccc(OC(F)(F)F)c3)n2)cc1 [Compound 19, 4-[2-(3-Trifluoromethoxy-phenyl)-pyrimidin-4-yl]-benzoic acid]
302 to 305 | O=C(O)c1ccc(-c2nccc(-c3ccc(Br)cc3)n2)cc1 [Compound 33, 4-[4-(4-Bromo-phenyl)-pyrimidin-2-yl]-benzoic acid]
217 to 219 | Cc1cccc(-c2ccnc(-c3cccc(C(=O)O)c3)n2)c1 [Compound 76, 3-(4-m-Tolyl-pyrimidin-2-yl)-benzoic acid]
> 300 | O=C(O)c1ccc(-c2ccnc(-c3ccc(F)cc3)n2)cc1 [Compound 18, 4-[2-(4-Fluoro-phenyl)-pyrimidin-4-yl]-benzoic acid]
263 to 265 | COc1ccc(-c2ccnc(-c3ccc(C(=O)O)cc3)n2)cc1 [Compound 37, 4-[4-(4-Methoxy-phenyl)-pyrimidin-2-yl]-benzoic acid]
242 to 244 | CC(C)c1ccc(-c2ccnc(-c3cccc(C(=O)O)c3)n2)cc1 [Compound 70, 3-[4-(4-Isopropyl-phenyl)-pyrimidin-2-yl]-benzoic acid]
> 300 | O=C(O)c1cccc(-c2nccc(-c3ccc(Br)cc3)n2)c1 [Compound 68, 3-[4-(4-Bromo-phenyl)-pyrimidin-2-yl]-benzoic acid]
279 to 281 | Cc1cnc(-c2cccc(C(=O)O)c2)nc1-c1ccccc1F [Compound 54, 3-[4-(2-Fluoro-phenyl)-5-methyl-pyrimidin-2-yl]-benzoic acid]
